One data set has as its system HCV replication. The data set is described as follows: Anti-HCV activity in Ava-5 HCV subgenomic replicon cells (firefly luciferase assay). Format: cell-based, Hepatitis C virus. Particulars: Ava-5 cells; for EC50: treated for three days, firefly luciferase assay, read-out: EC50 (concentration resulting in a 50% inhibition in virus production / HCV replication); for anti-HCV activity compared with ribavirin (in words): three days. As for the experimental part: Ava-5 cells were treated with compounds 6a–i or the positive ribavirin for three days, and then analyzed through firefly luciferase assay. The concentration that inhibited 50% HCV replication (EC50), the concentration that inhibited 50% cell growth (CC50), and the selectivity index (SI: CC50/EC50) of compounds were determined with ribavirin as a positive control.
(§1) Compounds were dissolved in DMSO at 10 mM and then diluted in culture medium.
(§2) Ava5 cells, an engineered HCV subgenomic replicon cell line, were cultured in Dulbecco′s modified Eagle′s medium (DMEM) with 10% heat-inactivated fetal bovine serum, 1% antibiotic–antimycotic, and 1% non-essential amino acids. Ava5 cells were maintained in DMEM with 1 mg mL^−1 G418 to maintain the stable expression of replicon.
Background: Replicon systems follow genome replication, usually without infectious particles.

The nature of data set [1]: Cytotoxicity in Ava-5 cells (XTT method). Format: cell-based. Particulars: human, Ava5 cells (HCV subgenomic replicon cell line); Ava-5 cells, 72 h, XTT method; read-out: CC50 (concentration causing a 50% growth inhibition of uninfected ava-5 cells). The method, then: as §1, §2
(§3) For cytotoxicity tests, run in parallel with antiviral assays, plates at an initial density of (5 × 10^3 cells/well) were treated with or without serial dilutions of test compounds. Cell viability was determined after 72 h at 37 °C in a humidified CO2 (5%) atmosphere by the (2,3-bis[2-methyloxy-4-nitro-5-sulfophenyl]-2H-tetrazolium-5-carboxanilide) (XTT) method.
In general terms: Tetrazolium dyes change colour on reduction, which living cells bring about.

A further data set deals with HCV genotype 2a. Particulars: cited from earlier work.
For the next data set, the system named is HCV genotype 1b. The note with it: cited from earlier work.
A further data set deals with HO-1 protein expression. The data set is described as follows: HO-1 protein expression in Ava-5 cells by western blotting. Particulars: 10 μM, 3 days, compared with DMSO-treated cells. Format: cell-based. The method, then:
To determine whether compounds 6b, 6e, 6h and 6i have impact on HO-1 protein expression in Ava-5 cells, we treated these compounds at 10 μM in Ava5 cells.
Ava5 cells were seeded in 24-well plates at a density of 5 × 10^4 cells per well overnight and treated with indicated reagent at proper concentrations for 3 days. Cells were washed with cold phosphate buffer saline (PBS) and lysed by radioimmunoprecipitation assay (RIPA) lysis buffer (50 mM Tris-HCl, pH 7.5, 150 mM NaCl, 1% Nonidet P-40, 2 mM EDTA, 1 mM EGTA, 1 mM NaVO3, 10 mM NaF, 1 mM DTT, 1 mM PMSF, 25 μg/mL aprotinin, and 25 μg/mL leupeptin) and stored at −20 °C. The protein concentration was determined by the Bradford method. Ten μg protein were separated by 10% SDS-PAGE and transferred onto a polyvinylidene difluorid (PVDF) membrane. The membrane was blocked with 5% non-fat dried milk and incubated with specific antibodies against NS5B (1:5000; Abcam Cambridge, MA, USA), glyceraldehyde-3-phosphate dehydrogenase (GAPDH) and anti-HO-1 (1:3000, Abcam Cambridge, MA, USA). Antibodies were diluted in 5% milk containing Tris-buffered saline (TBS) and 0.5% Tween. The blotting signal was developed using an ECL detection kit (PerkinElmer, Norwalk, CT, USA) and was counted by the software Quantity One (Bio-Rad, Foster, CA, USA).
Compound 6b, 6e, 6h and 6i induced HO-1 protein expression. Ava-5 cells were treated with compounds at 10 μM for 3 days. The cell lysate was subjected to western blotting with anti-HO-1 and anti-GAPDH antibodies.
Background: In western blotting, separated proteins are transferred to a membrane and probed.

Data set [2] concerns Nrf2 / ARE transactivation. The data set is described as follows: ARE transactivation, p3xARE-Luc reporter in Ava-5 cells (luciferase assay). Format: cell-based. The note with it: p3xARE-Luc-transfected Ava-5 cells, 1 and 10 μM, 3 days. The text has this:
Heme oxygenase 1 expression is regulated by the transcription factors Nrf2, Keap1, and Bach1 through the binding of ARE in its promoter region; therefore, we determined whether isoflavones-mediated HO-1 induction was dependent on ARE transactivation by treating p3xARE-Luc-transfected ava-5 cells with increasing concentrations of […] for 3 days.
Ava5 cells were transfected with the HO-1 promoter-driven luciferase plasmid, pHO-1-Luc, using the T-pro^TM transfection reagent (Ji-Feng Biotechnology Co., Ltd., Taipei, Taiwan) according to the manufacturer′s instructions. The transfected cells were treated with compounds at various concentrations for 3 days. Each transfection complex contains 0.1 μg pSEAP, a secreted alkaline phosphatase (SEAP) expression vector, for normalization luciferase activity serving as a transfection control. The luciferase activity assay was performed using the Bright-Glo Luciferase assay system (Promega) (Madison, WI, USA) according to the manufacturer′s instructions.
Figure 6 Isoflavones inhibited HCV replication by upregulating Nrf2 expression. Compound 6b, 6e, 6h and 6i stimulated ARE transactivation in Ava-5 cells. The antioxidant response reporter plasmid, p3xARE-Luc, was transfected into Ava-5 cells and then treated with isoflavones (1 and 10 μM) for 3 days. The relative induction of antioxidant activity was determined by luciferase assay. The activity of untreated Ava-5 cells was considered to be 1.

In a further data set the test system is ava-5 cells. The data set is described as follows: Cytotoxicity in Ava-5 cells (XTT method). Format: cell-based. Particulars: Ava-5 cells, 72 h, XTT method; read-out: CC50 (concentration causing a 50% growth inhibition of uninfected ava-5 cells). The method, then:
as §1, §2, §3

For a further data set, the system named is HCV. Particulars: cited from earlier work.

The text below walks through data of paper PMC6278568, “Discovery of 3-Amino-2-Hydroxypropoxyisoflavone Derivatives as Potential Anti-HCV Agents” (Molecules, 2018).

Entries after “also recorded” stand apart in the source; their conditions may differ. Like-named read-outs stand apart in the source and are kept apart here. Some results are limits rather than exact numbers.

Broadly, the melting point is the temperature of the solid-liquid transition.

As to `COc1ccc(-c2coc3cc(OCC(O)CNCCc4c[nH]c5ccccc45)ccc3c2=O)cc1OC` (stereo not shown) [Compound 6c, 7-{3-{[2-(1H-Indol-3-yl)ethyl]amino}-2-hydroxypropoxy}-3-(3,4-dimethoxyphenyl)-4H-chromen-4-one], the melting point lay within 178 to 179 °C. Further, the “SI (selectivity index, CC50/EC50)” value with HCV replication was 2.26. Also, the EC50 in the data set with HCV replication (Hepatitis C virus, Ava5, 72 h) was found to be 16.3 ± 0.95 µM. For the same compound, the CC50 at 72 h in data set [1] is 36.9 ± 0.46 µM.

Regarding `c1ccc(Cn2c(-c3ccccc3)cc3c2CCCC3)cc1` [Compound 1, 1-benzyl-2-phenyl-4,5,6,7-tetrahydro-1H-indole], the EC50 with HCV genotype 2a is 2.6 µM; with HCV genotype 1b, 7.9 µM.

Consider `CCC(C)(C)NCC(O)COc1ccc2c(=O)c(-c3ccc(OC)c(OC)c3)coc2c1` (stereo not shown) [Compound 6e, 3-(3,4-Dimethoxyphenyl)-7-(2-hydroxy-3-(tert-pentylamino)propoxy)-4H-chromen-4-one], for which, in the data set on HCV replication, the “anti-HCV activity compared with ribavirin (in words)” value was “more active than ribavirin; also recorded: higher anti-HCV effects than ribavirin” and the “SI (selectivity index, CC50/EC50)” value came out at 10.80. Also, the EC50 with HCV replication (Hepatitis C virus, Ava5, 72 h) came to 8.14 ± 1.74 µM. The CC50 at 72 h in data set [1] came to 87.9 ± 2.13 µM. The HO-1 protein level entry with HO-1 protein expression is “could induce HO-1 protein level”. The ARE-mediated luciferase activity result in data set [2] is given as “increased ARE-mediated luciferase activity”.

Regarding `COc1ccc(-c2coc3cc(OCC(O)CNCC4(N5CCOCC5)CCCCC4)ccc3c2=O)cc1OC` (stereo not shown) [Compound 6i, 3-(3,4-Dimethoxyphenyl)-7-{2-hydroxy-3-{[(1-morpholinocyclohexyl)methyl]amino}propoxy}-4H-chromen-4-one], the melting point lay in the range of 67 to 68 °C. Moreover, in the data set on HCV replication, the “anti-HCV activity compared with ribavirin (in words)” value is on record as “more active than ribavirin; also recorded: higher anti-HCV effects than ribavirin” and the “SI (selectivity index, CC50/EC50)” value is on record as 14.55. Besides, the EC50 in the data set on HCV replication (Hepatitis C virus, Ava5, 72 h) is 10.7 ± 0.87 µM. Besides, in data set [1], the CC50 at 72 h amounted to 156 ± 1.58 µM. Further, the HO-1 protein level entry with HO-1 protein expression was “could induce HO-1 protein level”. Further, the ARE-mediated luciferase activity entry in data set [2] was “increased ARE-mediated luciferase activity”.

For the compound “3-{{3-{[3-(3,4-Dimethoxyphenyl)-4-oxo-4H-chromen-7-yl]oxy}-2-hydroxypropyl}amino}-2-(1H-indol-3-yl)propanoic acid [Compound 6d]”, in the data set on HCV replication, the EC50 is above 20 µM. Moreover, the CC50 in the data set with ava-5 cells stood at 98.8 ± 3.67 µM.

Turning to `COc1ccc(-c2coc3cc(OCC(O)CNCCc4ccc(O)cc4)ccc3c2=O)cc1OC` (stereo not shown) [Compound 6a, 3-(3,4-Dimethoxyphenyl)-7-{2-hydroxy-3-[(4-hydroxyphenethyl)amino]propoxy}-4H-chromen-4-one], the melting point was in the range of 117 to 118 °C. The “SI (selectivity index, CC50/EC50)” value in the data set with HCV replication is below 3.58. In the data set on HCV replication (Hepatitis C virus, Ava5, 72 h), the EC50 was above 20 µM. In addition, the CC50 at 72 h in data set [1] turned out to be 71.7 ± 4.44 µM.

Consider `COc1ccc(-c2coc3cc(OCC(O)CNC(C)(C)N4CCOCC4)ccc3c2=O)cc1OC` (stereo not shown) [Compound 6g, 3-(3,4-Dimethoxyphenyl)-7-{2-hydroxy-3-[(2-morpholinopropan-2-yl)amino]propoxy}-4H-chromen-4-one], for which the “SI (selectivity index, CC50/EC50)” value with HCV replication is listed as below 7.17. Further, the EC50 in the data set on HCV replication (Hepatitis C virus, Ava5, 72 h) is above 20 µM. The CC50 at 72 h in data set [1] was 144 ± 3.82 µM.

In the case of `O=c1c(O)c(-c2ccc(O)c(O)c2)oc2cc(OCc3cccc(Cl)c3)cc(O)c12` [Compound 3, 7-[(3-chlorobenzyl)oxy]-2-(3,4-dihydroxyphenyl)-3,5-dihydroxy-4H-chromen-4-one], the EC50 with HCV (anti-HCV evaluation of quercetin analogues) is 3.8 µM.

Turning to `CCOC(=O)C1C[C@@H]2/C(=N/Nc3ccccc3)CCCC[C@@H]2N1S(=O)(=O)c1ccc(C)cc1` (stereo partly drawn) [Compound 2, (3aS,8aS,E)-ethyl-4-(2-phenylhydrazono)-1-tosyldecahydro-cyclohepta[b]pyrrole-2-carboxylate], the values for the EC50 with HCV genotype 2a and with HCV genotype 1b were 4.5 µM and 1.8 µM, respectively.

In turn, `COc1ccc(-c2coc3cc(OCC(O)CNC(C)(C)c4ccccc4)ccc3c2=O)cc1OC` (stereo not shown) [Compound 6f, 3-(3,4-Dimethoxyphenyl)-7-{2-hydroxy-3-[(2-phenylpropan-2-yl)amino]propoxy}-4H-chromen-4-one] displayed a melting point of 131 to 132 °C. In the data set on HCV replication, the “SI (selectivity index, CC50/EC50)” value was found to be 3.30. Further, the EC50 with HCV replication (Hepatitis C virus, Ava5, 72 h) was 14.3 ± 0.84 µM. Moreover, in data set [1], the CC50 at 72 h amounted to 47.2 ± 2.74 µM.

Regarding `COc1ccc(Nc2cc3oc(-c4ccco4)nc3c3ccccc23)cc1` [Compound 4, 2-(furan-2-yl)-N-(4-methoxyphenyl)naphtho[1,2-d]oxazol-5-amine], the EC50 with HCV (anti-HCV evaluation of naphtho[1,2-d]oxazole derivatives) was 0.63 µM.

Take `NC(=O)c1ncn([C@@H]2O[C@H](CO)[C@@H](O)[C@H]2O)n1` [ribavirin, reference compound]: the “SI (selectivity index, CC50/EC50)” value in the data set with HCV replication was 8.08. For the same compound, the EC50 in the data set with HCV replication (Hepatitis C virus, Ava5, 72 h) was 13.2 ± 1.63 µM. The CC50 at 72 h in data set [1] was 106 ± 3.69 µM.

For `COc1ccc(-c2coc3cc(OCC(O)CNC(C)(C)Cc4ccc(F)cc4)ccc3c2=O)cc1OC` (stereo not shown) [Compound 6h, 3-(3,4-Dimethoxyphenyl)-7-{3-{[1-(4-fluorophenyl)-2-methylpropan-2-yl]amino}-2-hydroxypropoxy}-4H-chromen-4-one], the melting point lay within 151 to 152 °C. Moreover, in the data set with HCV replication, the “anti-HCV activity compared with ribavirin (in words)” value is reported as “more active than ribavirin; also recorded: higher anti-HCV effects than ribavirin” and the “SI (selectivity index, CC50/EC50)” value is reported as 11.87. For the same compound, the EC50 with HCV replication (Hepatitis C virus, Ava5, 72 h) amounted to 9.35 ± 0.97 µM. In addition, the CC50 at 72 h in data set [1] was determined as 111 ± 4.39 µM. Moreover, the HO-1 protein level entry in the data set with HO-1 protein expression was “could induce HO-1 protein level”. Moreover, the ARE-mediated luciferase activity entry in data set [2] is reported as “increased ARE-mediated luciferase activity”.
